Laboratory results reported in ChEMBL document CHEMBL1201862, “PubChem BioAssay data set” (2004).
The source made the active and inactive calls.

What was measured:
[1] = Vero E6 cell cytotoxicity, dose response, cytotoxicity control for non-replicating M. tuberculosis project, secondary assay (AID 492998); format: functional, VeroE6; conditions: Vero C1008
[2] = Luminescence Cell-Based Dose Response HTS to Identify Activators of Luciferase Translation or Activity in H4 […] Cells. [Related pubchem assays: 1829 (Project Summary), 1814 (Primary HTS)]; format: functional
[3] = target: Heat shock protein HSP 90-alpha (Homo sapiens, UniProt P07900); format: functional, organism-based
[4] = target: T1, Rac GTPase-activating protein 1 (Homo sapiens, UniProt Q9H0H5); experiment: MgcRacGAP GTPase-activating activity inhibitors, confirmation, biochemical, ADP Hunter fluorescence, primary and confirmatory (AID 624330); format: functional
T1 sequence (Q9H0H5 whole entry): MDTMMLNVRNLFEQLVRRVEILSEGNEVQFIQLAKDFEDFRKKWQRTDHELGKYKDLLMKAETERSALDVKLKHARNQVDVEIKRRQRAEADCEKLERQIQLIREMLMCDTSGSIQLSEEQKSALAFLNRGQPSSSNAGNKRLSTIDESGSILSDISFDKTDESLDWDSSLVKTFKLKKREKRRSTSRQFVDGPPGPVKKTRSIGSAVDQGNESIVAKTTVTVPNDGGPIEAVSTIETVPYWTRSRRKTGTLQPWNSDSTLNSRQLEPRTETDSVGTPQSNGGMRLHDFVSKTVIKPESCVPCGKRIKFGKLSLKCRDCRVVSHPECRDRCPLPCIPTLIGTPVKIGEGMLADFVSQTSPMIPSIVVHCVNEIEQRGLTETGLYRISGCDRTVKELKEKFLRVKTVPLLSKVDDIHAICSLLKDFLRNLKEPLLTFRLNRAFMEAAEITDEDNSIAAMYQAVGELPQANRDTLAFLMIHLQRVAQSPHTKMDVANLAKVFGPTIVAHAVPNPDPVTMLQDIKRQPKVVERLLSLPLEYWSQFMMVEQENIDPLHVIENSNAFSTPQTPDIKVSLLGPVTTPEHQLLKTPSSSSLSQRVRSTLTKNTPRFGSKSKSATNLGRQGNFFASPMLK

[5] = Luminescence Cell-Based Dose Confirmation HTS to Identify Activators of 5'UTR Stem-Loop Driven Alpha-Synuclein mRNA Translation in H4 Neuroglioblastoma Cells. [Related pubchem assays: 1829 (Project Summary), 1814 (Primary HTS)]; format: functional
[6] = test system: H4; experiment: Luminescence Cell-Based Dose Response HTS to Identify Activators of 5'UTR Stem-Loop Driven Prion Protein mRNA Translation in H4 Neuroglioblastoma Cells. [Related pubchem assays: 1829 (Project Summary), 1814 (Primary HTS)]; format: functional; conditions: Homo sapiens
[7] = target: FAD-linked sulfhydryl oxidase ALR (Homo sapiens, UniProt P55789); experiment: inhibitors of human ALR sulfhydryl oxidase, dose response, biochemical, H2O2 detection, luminescence, cherry-pick (AID 493248)
[8] = cells; format: functional
[9] = THP-1 cell cytotoxicity, dose response, cytotoxicity control for non-replicating M. tuberculosis project (AID 489025); format: functional
[10] = HeLa cell cytotoxicity, dose response, cytotoxicity control for MgcRacGAP inhibitor project (AID 624300); format: functional
[11] = A549 cell cytotoxicity, dose response, cytotoxicity control, plate reader, cherry-pick, antagonist series (AID 743412); format: functional, cell-based
[12] = LGR2 antagonists, dose response, cell-based, HEK293, CRE-luciferase reporter, cherry pick, set 2 (AID 743343); format: functional;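 note: transfected cells were stimulated with diluted bursicon conditioned medium after compound addition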
[13] = MC4R antagonists, dose response, counter-screen for LGR2 antagonist project, cell-based, plate reader, cherry pick (AID 743444); format: functional;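 note: transfected HEK 293 cells stimulated with alpha-MSH peptide; potency of inhibitors of the alpha-MSH evoked signal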
[14] = Luminescence Cell-Based Dose Response HTS to Identify Inhibitors of 5'UTR Stem-Loop Driven Prion Protein mRNA Translation in H4 Neuroglioblastoma Cells. [Related pubchem assays: 1827 (Project Summary), 1813 (Primary HTS)]; format: functional
[15] = inhibitors of firefly luciferase expression or activity, dose response, H4 neuroglioma cells, luminescence (AID 1990); format: functional, cell-based
[16] = inhibitors of SNCA 5'UTR-driven reporter translation, confirmation, H4 neuroglioma cells, luminescence (AID 1988); format: functional, cell-based
[17] = target: Albumin (Bos taurus, UniProt P02769); experiment: Counterscreen for inhibitors of T-cell receptor (TCR)-CD3 interaction: Fluorescence-based biochemical high throughput dose response assay to identify inhibitors of T-cell receptor (TCR)-CD3 interaction using a TAMRA-labeled BSA probe.; format: functional
[18] = target: Mitogen-activated protein kinase 10 (Homo sapiens, UniProt P53779); experiment: Dose response biochemical screening assay for inhibitors of c-Jun N-Terminal Kinase 3 (JNK3). [Related pubchem assays: 746 ]
[19] = target: T2, Leucine aminopeptidase (Plasmodium falciparum 3D7, UniProt Q8IL11); experiment: P. falciparum M17LAP inhibitors, primary screen, biochemical, fluorogenic H-Leu-NHMec substrate, 1536-well (AID 1619); format: functional
T2 sequence (Q8IL11 whole entry): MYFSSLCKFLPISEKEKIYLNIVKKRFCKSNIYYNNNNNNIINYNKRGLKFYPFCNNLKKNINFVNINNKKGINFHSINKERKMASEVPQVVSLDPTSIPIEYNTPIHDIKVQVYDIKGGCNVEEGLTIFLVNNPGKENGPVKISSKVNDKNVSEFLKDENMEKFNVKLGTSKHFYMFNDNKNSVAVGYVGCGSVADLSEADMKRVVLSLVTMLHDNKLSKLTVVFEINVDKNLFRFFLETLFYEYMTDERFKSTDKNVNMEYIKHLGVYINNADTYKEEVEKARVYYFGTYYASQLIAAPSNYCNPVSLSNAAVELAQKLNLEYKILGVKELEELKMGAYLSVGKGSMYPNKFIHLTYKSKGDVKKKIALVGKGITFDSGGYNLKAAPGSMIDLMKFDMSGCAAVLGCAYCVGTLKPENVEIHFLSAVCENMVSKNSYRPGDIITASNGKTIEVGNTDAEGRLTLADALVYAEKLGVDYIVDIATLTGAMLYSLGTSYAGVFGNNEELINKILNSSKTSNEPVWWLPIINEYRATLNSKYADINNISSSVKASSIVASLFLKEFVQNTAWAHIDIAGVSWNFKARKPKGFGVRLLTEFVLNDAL

[20] = target: T3, Caspase-6 (Homo sapiens, UniProt P55212); experiment: human caspase-6 inhibitors, dose response, biochemical, VEID-R110 fluorescence, cherry-pick (AID 720632)
T3 sequence (P55212 whole entry): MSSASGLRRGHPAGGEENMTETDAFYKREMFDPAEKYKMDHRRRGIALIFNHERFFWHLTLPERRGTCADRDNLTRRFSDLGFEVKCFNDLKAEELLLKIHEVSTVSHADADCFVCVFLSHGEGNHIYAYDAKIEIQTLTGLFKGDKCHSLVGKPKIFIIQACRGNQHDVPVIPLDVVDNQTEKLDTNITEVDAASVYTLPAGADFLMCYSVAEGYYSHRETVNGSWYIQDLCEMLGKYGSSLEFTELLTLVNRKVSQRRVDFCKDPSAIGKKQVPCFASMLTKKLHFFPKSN

[21] = target: T4, Tyrosyl-DNA phosphodiesterase 2 (Homo sapiens, UniProt O95551); experiment: human TDP2 enzyme inhibitors, dose response, biochemical, epi absorbance, IC50 (AID 743297)
T4 sequence (O95551 whole entry): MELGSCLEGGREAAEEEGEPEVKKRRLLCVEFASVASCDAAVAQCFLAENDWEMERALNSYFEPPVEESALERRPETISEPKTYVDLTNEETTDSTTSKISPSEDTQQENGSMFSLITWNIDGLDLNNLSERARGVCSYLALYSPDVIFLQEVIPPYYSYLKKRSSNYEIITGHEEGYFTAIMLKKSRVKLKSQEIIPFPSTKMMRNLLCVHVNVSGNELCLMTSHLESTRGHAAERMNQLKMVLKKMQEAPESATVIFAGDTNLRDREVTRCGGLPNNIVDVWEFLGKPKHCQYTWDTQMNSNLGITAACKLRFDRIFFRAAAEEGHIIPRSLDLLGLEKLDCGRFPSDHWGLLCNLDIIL

[22] = target: T5, Histone-lysine N-methyltransferase NSD2 (Homo sapiens, UniProt O96028); format: biochemical
T5 sequence (O96028 whole entry): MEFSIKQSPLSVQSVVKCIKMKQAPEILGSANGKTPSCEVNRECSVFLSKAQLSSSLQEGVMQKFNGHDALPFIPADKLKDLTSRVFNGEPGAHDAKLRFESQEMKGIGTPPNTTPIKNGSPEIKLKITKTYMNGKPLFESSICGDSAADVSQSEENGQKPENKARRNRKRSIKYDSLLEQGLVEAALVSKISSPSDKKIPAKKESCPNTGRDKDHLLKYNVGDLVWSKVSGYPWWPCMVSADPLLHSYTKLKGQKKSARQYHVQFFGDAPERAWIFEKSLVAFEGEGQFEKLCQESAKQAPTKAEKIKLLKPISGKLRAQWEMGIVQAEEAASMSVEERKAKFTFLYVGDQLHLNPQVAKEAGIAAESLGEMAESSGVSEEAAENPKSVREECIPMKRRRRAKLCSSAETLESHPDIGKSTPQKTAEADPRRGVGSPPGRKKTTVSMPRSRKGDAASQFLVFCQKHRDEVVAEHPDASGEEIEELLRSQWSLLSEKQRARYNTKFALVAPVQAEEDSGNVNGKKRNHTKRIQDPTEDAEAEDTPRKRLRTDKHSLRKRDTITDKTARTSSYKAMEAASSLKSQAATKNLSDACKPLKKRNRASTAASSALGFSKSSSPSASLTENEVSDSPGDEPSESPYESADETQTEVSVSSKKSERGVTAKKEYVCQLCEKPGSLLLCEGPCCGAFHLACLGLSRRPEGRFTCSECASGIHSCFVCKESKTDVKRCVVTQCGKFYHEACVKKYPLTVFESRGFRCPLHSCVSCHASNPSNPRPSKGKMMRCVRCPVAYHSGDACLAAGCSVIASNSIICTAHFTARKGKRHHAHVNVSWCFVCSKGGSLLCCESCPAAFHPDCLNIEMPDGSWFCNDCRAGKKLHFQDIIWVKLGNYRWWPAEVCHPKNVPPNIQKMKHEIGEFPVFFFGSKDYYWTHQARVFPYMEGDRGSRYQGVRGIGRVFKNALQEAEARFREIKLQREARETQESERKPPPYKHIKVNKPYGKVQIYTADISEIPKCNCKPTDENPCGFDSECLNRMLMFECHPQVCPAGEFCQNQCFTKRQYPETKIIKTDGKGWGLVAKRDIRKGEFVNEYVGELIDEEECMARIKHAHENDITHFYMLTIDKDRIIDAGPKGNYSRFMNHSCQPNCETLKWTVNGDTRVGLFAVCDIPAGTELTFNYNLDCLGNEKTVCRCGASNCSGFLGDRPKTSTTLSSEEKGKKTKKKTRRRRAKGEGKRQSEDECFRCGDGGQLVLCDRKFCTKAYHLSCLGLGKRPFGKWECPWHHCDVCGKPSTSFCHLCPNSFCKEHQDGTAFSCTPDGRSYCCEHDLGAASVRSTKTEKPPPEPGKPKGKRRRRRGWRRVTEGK

[23] = cells; format: functional, cell-based
[24] = test system: Streptococcus sp. 'group A'; experiment: growth inhibition of control SK(-) GAS strain, dose response, counter-screen for streptokinase expression inhibitor project, luminescence, kanamycin, BacTiterGlo, confirmation (AID 1900); format: functional, organism-based
[25] = cells; format: functional, cell-based; remark: listed apart in the source
[26] = test system: Streptococcus; experiment: Group A Streptococcus viability loss, dose response, counter-screen for streptokinase expression inhibitor project, luminescence, BacTiterGlo (AID 1915); format: functional, organism-based;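 note: potency for reduction of bacterial viability or growth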

Mitogen-activated protein kinase 10, sequence (P53779 whole entry): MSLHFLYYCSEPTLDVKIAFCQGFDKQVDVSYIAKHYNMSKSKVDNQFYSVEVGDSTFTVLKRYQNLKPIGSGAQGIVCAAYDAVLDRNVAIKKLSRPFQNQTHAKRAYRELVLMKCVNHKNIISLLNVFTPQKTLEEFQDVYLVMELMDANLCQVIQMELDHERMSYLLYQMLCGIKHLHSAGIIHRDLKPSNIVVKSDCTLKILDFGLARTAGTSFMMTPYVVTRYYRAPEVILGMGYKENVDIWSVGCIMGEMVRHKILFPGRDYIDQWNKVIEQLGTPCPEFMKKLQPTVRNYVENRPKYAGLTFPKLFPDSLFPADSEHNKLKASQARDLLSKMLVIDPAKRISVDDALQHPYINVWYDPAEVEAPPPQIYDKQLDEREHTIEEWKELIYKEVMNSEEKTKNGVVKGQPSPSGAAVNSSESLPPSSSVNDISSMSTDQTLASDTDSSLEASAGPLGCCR
Albumin, sequence (P02769 whole entry): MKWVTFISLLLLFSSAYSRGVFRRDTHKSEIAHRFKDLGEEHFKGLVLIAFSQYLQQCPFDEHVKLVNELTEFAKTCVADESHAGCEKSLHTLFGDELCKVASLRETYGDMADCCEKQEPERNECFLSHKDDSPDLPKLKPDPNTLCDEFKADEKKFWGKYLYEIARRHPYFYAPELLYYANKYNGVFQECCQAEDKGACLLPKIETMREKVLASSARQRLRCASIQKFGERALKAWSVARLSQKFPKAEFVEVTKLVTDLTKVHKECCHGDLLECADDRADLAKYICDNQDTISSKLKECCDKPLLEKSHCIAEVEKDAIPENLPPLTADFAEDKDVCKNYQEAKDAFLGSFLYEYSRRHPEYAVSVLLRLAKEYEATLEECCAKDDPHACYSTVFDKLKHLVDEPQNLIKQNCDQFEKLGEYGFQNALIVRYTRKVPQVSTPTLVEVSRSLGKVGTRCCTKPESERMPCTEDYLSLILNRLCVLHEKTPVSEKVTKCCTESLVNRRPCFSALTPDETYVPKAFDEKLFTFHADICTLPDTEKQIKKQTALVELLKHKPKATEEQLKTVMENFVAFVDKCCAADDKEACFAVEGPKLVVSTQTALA
FAD-linked sulfhydryl oxidase ALR, sequence (P55789 whole entry): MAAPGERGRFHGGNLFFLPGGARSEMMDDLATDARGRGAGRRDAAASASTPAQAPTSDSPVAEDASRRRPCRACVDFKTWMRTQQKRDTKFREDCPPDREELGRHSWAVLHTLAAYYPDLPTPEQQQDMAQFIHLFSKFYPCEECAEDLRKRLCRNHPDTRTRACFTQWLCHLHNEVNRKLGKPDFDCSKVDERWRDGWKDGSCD

For `COc1ccc(/C(C#N)=C2C=C/C(=N/O)C=C/2)cc1`, the CC50 [1] was 13.3 µM (active), the EC50 [2] was 14.5 µM (active) and the AC50 [3] was 4.64 µM (active). The IC50 [4] was 93 µM (active), the EC50 [5] was 16.7 µM (active) and the EC50 [6] was 17.6 µM (active). For the same compound, the AC50 [7] was 5.88 µM (active), the IC50 [8] was 44.8 µM (active) and the CC50 [9] was 13 µM (active). The CC50 [10] was 89.3 µM (active).
With `O=C1CC(c2ccc3c(c2)OCO3)Sc2nc3ccccc3n21` (stereo not drawn) the AC50 [11] was > 52 µM (inactive), the AC50 [12] was 13.1 µM (active) and the AC50 [13] was 11.2 µM (active).
In the case of `CCCCCCn1c(=O)c(C(=O)Nc2ncccc2O)c(O)c2ccccc21`, the EC50 [14] is reported as 22.7 µM (active), the EC50 [15] is reported as 10.7 µM (active) and the EC50 [16] is reported as 9.12 µM (active). The IC50 [17] was > 94.2 µM (inactive).
In the case of `O=S(=O)(c1ccc2c(c1)OCCO2)N1CCC(n2cnc3cc(F)ccc32)CC1`, the IC50 [18] is reported as 49.4 µM (not active).
For `CCOc1ccc(NC(=O)CN2C(=O)C3CCCN3C2=O)cc1` (stereo not drawn), the IC50 [18] was > 93.1 µM (not active) and the IC50 [19] was 3.23 µM (active).
In the case of `O=C(Cn1cnc([N+](=O)[O-])n1)c1ccc(O)c(O)c1`, the AC50 [20] is reported as 43.9 µM (active).
With `CC(=O)N1CCn2c3c(c(=O)c4cc(C)ccc42)CCC31` (stereo not drawn) the IC50 [21] was 43.5 µM (inactive) and the AC50 [22] was 7.99 µM (active).
With `Cc1nc2ccccc2c(=O)n1/N=C/c1cc(Br)cc(Br)c1O` the EC50 [23] was > 350 µM (not active), the EC50 [24] was 5.09 µM (active) and the EC50 [25] was > 350 µM (not active). For the same compound, the EC50 [26] was 8.18 µM (active) and the IC50 [17] was > 94.1 µM (inactive).
